According to ChEMBL document CHEMBL4382204 (Eur J Med Chem, 2018):

Target: Epithelial discoidin domain-containing receptor 1 (Homo sapiens) (UniProt Q08345)
Assay: Inhibition of wild type C-terminal FLAG-tagged human TEL fused DDR1 (unknown origin) transfected in mouse BAF3 cells assessed as growth inhibition after 72 hrs by CCK8 assay
Assay type: cell-based

Epithelial discoidin domain-containing receptor 1 (Homo sapiens), sequence (Q08345 whole entry, the tested form may be a part): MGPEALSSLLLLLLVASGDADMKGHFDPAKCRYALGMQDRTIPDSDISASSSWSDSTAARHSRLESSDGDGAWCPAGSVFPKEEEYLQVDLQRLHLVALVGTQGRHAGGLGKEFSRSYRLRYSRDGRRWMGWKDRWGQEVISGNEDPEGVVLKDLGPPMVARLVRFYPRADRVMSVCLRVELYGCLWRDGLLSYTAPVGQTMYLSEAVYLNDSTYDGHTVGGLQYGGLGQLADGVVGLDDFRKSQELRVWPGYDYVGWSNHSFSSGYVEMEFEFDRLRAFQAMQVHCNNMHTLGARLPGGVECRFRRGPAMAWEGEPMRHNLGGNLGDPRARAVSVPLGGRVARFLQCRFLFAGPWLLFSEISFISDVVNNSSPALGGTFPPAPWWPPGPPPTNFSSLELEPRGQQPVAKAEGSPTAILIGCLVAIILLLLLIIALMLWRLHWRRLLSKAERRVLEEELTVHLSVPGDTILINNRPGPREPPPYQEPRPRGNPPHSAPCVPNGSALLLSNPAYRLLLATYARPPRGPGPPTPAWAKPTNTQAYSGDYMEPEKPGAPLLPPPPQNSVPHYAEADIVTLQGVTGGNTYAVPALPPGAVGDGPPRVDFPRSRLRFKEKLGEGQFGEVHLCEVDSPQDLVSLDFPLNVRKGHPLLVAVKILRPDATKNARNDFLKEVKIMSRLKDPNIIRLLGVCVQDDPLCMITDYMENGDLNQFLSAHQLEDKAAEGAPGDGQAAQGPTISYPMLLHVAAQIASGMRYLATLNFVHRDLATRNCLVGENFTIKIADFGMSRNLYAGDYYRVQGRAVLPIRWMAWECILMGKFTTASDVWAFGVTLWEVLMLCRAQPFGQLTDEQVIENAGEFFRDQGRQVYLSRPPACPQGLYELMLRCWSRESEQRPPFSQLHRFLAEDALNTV

CN1CCN(Cc2ccc(NC(=O)CCSc3ccc4c(/C=C/c5ccccn5)n[nH]c4c3)cc2C(F)(F)F)CC1
GI50: 1360 nM
